The text below walks through data of article PMC10755728, “Inhibitors of the Elastase LasB for the Treatment of Pseudomonas aeruginosa Lung Infections” (ACS Central Science, 2023).

For one series, the target named is T1, LasB (Pseudomonas aeruginosa, UniProt Q02RJ6).
T1 construct: made in house
The experiment in a line: biochemical. The format is biochemical.

Series [1] can be described thus: Lipophilicity determination (LogD7.4, HPLC-MS). It counts as physicochemical. The settings on record: pH 7.4, pH 7.4, chromatographic.
Method: Lipophilicity determination. LogD7.4 was analyzed using an HPLC−MS based method.50 The retention time of 12 compounds with known LogD7.4 was determined and plotted toward their LogD7.4. Linear regression was used to determine the LogD7.4 of unknown compounds. Analysis was performed using a Dionex Ultimate 3000 HPLC system coupled to a TSQ Quantum Access MAX (Thermo Fisher, Dreieich, Germany) with the following conditions: EC150/2 NUCLEODUR C18 Pyramid column, 5 μM (Macherey Nagel, Düren, Germany); eluent A: 50 mM NH4OAc pH 7.4, eluent B: acetonitrile, and flow: 0.6 mL/min.
Series [2] is described as follows: Metabolic stability in mouse liver S9 fraction. The format is in vitro ADME.
Series [3] is described as follows: Metabolic stability in human liver S9 fraction. The format is in vitro ADME.
A short description of another series: Plasma stability, mouse. The format is in vitro ADME. The conditions noted are these: for half-life at 1 μM: mouse plasma, read-out: Plasma T1/2 Mouse.
The next series can be described thus: Calu-3 permeability. The format is in vitro ADME. The conditions noted are these: human.
The next series concerns the target T2, MMP-1 (Homo sapiens, UniProt P03956).
T2 construct: purchased AnaSpec (Fremont, CA, USA)
T2 sequence (P03956 100-469): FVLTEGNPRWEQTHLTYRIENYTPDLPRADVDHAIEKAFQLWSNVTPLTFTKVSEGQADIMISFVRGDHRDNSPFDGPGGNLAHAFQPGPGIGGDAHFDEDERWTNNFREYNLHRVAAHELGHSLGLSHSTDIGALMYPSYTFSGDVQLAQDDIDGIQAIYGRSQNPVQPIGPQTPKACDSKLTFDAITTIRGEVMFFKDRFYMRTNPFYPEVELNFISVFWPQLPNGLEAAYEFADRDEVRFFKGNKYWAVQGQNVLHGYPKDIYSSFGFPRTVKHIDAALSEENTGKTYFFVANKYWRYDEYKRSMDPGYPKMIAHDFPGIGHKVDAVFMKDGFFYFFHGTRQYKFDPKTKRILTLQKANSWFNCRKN
The series can be described thus: MMP-1 inhibition assay. The format is biochemical. The conditions noted are these: read-out: % inhibition MMP-1.

The next series has as its target T3, MMP-2 (Homo sapiens, UniProt P08253).
T3 construct: purchased AnaSpec (Fremont, CA, USA)
T3 sequence (P08253 110-660): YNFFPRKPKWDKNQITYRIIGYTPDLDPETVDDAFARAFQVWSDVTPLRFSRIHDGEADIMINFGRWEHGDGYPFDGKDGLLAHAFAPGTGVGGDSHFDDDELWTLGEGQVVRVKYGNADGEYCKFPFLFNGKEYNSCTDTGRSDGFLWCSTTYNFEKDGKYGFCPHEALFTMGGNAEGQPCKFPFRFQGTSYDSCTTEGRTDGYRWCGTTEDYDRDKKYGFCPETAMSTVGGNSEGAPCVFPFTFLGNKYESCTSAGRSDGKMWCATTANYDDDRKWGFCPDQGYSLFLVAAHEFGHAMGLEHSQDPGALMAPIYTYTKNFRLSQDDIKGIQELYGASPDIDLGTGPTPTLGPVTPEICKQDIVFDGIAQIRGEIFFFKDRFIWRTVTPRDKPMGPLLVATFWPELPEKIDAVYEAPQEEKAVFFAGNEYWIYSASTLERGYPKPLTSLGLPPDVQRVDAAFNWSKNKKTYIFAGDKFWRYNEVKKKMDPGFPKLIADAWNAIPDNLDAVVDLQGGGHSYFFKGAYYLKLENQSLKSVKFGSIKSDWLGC
The experiment in a line: MMP-2 inhibition assay. The format is biochemical. The conditions noted are these: read-out: % inhibition MMP-2.

The next series has as its target T4, MMP-3 (Homo sapiens, UniProt P08254).
T4 construct: purchased AnaSpec (Fremont, CA, USA)
The series can be described thus: MMP-3 inhibition assay. It counts as biochemical. The settings on record: read-out: % inhibition MMP-3.

The next series concerns the target T5, HDAC-3 (Homo sapiens, UniProt O15379).
T5 construct: purchased Sigma-Aldrich (Saint Louis, MO)
The experiment in a line: HDAC-3 inhibitor screening kit. It counts as biochemical.

The next series concerns the target T6, HDAC-8 (Homo sapiens, UniProt Q9BY41).
T6 construct: purchased Sigma-Aldrich (Saint Louis, MO)
T6 sequence (Q9BY41 1-377): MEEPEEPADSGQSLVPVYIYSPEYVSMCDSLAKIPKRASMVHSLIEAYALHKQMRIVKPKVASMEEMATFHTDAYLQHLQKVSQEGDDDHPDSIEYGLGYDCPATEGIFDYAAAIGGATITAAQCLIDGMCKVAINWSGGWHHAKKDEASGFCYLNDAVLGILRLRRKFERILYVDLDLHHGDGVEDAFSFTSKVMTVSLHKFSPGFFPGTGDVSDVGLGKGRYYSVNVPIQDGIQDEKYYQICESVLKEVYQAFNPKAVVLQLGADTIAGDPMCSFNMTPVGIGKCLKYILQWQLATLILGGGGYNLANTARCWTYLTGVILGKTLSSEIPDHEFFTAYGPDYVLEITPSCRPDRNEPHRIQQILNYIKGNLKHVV
The experiment in a line: HDAC-8 inhibitor screening kit. The format is biochemical.

The target of the next series is T7, TACE (Homo sapiens, UniProt P78536).
T7 construct: purchased Sigma-Aldrich (Saint Louis, MO)
T7 sequence (P78536 215-824): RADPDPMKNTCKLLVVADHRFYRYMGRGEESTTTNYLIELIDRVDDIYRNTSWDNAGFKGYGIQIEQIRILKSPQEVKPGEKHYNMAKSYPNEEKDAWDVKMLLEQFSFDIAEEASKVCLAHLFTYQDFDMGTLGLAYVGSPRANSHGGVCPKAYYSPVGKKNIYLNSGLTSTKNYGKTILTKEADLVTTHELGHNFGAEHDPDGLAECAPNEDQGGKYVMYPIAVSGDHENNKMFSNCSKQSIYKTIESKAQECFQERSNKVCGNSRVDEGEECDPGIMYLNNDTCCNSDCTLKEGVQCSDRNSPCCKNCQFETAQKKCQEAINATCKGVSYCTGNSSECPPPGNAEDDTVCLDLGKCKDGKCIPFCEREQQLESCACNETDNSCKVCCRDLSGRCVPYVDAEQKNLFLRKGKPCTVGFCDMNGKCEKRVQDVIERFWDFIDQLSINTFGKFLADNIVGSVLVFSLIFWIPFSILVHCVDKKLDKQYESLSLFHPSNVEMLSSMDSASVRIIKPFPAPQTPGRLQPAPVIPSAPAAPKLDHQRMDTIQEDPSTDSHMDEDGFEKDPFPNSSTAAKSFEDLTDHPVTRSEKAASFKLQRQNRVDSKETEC
The experiment in a line: TACE inhibitor screening kit. It counts as biochemical. The conditions noted are these: read-out: % inhibition TACE.

The next series concerns the target T8, COX-1 (Ovis aries, UniProt P05979).
T8 construct: purchased Abcam (Cambridge, UK)
T8 sequence (P05979 25-600): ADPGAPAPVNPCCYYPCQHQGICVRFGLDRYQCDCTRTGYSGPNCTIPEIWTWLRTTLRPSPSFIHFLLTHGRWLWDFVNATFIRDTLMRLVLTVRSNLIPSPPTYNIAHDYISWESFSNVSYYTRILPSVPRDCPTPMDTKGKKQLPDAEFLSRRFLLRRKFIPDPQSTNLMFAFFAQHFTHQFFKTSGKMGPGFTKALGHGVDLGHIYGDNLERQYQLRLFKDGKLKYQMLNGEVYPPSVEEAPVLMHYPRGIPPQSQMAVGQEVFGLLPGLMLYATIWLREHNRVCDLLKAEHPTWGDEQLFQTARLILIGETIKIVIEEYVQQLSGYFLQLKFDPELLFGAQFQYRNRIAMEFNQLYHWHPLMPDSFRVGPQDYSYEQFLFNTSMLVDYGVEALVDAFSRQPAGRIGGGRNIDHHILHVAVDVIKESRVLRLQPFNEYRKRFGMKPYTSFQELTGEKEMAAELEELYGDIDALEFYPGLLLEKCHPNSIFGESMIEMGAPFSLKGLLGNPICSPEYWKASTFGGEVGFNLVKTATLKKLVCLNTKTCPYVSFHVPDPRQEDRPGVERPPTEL
The series can be described thus: Fluorometric COX-1 inhibitor assay. It counts as biochemical, human.

The subject of the next series is HEK293. The conditions noted are these: human, 48 h, 100 µM.
Series [4] is described as follows: Microsomal stability, mouse liver microsomes. The format is in vitro ADME. The settings on record: C57BL6, mouse, pooled liver microsomes. A general note: Microsomes from liver hold many membrane-bound enzymes, among them those of drug oxidation.
The nature of series [5]: Microsomal stability, rat liver microsomes. It counts as in vitro ADME. The conditions noted are these: Wistar, pooled liver microsomes.
The nature of series [6]: Microsomal stability, minipig liver microsomes. It counts as in vitro ADME. The conditions noted are these: Göttingen, pooled liver microsomes.
A short description of a further series: Plasma stability, rat. The format is in vitro ADME. The conditions noted are these: Wistar, pooled plasma, species profiling, read-out: Plasma T1/2 Rat (Wistar).
Series [7] is described as follows: Plasma stability, minipig. It counts as in vitro ADME. The conditions noted are these: Göttingen, pooled plasma, species profiling, read-out: Plasma T1/2 Minipig (Göttingen).
A further series deals with P. aeruginosa PA14. The series can be described thus: Bacterial growth inhibition assay. It counts as cell-based, Pseudomonas aeruginosa. The conditions noted are these: Pseudomonas aeruginosa, PA14; 100 µM compound concentration; read-out: Percent (%) growth inhibition of P. aeruginosa PA14.
Series [8] has as its system Galleria mellonella larvae infected with wt PA14. The experiment in a line: G. mellonella infection model.

Where two headings read alike, the source gives them in different places.

T4 sequence (P08254 100-477): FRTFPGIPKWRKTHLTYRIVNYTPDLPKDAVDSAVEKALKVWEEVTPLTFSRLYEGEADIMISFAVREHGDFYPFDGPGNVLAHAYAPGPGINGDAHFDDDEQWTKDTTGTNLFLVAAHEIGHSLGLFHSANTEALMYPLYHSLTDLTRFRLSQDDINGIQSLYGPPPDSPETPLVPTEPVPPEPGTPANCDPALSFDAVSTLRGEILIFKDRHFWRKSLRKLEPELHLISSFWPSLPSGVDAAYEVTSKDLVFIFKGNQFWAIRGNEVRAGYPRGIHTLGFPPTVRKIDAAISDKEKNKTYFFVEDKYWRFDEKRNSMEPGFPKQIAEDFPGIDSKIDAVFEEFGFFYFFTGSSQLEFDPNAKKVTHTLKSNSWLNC
T1 sequence (Q02RJ6 198-498): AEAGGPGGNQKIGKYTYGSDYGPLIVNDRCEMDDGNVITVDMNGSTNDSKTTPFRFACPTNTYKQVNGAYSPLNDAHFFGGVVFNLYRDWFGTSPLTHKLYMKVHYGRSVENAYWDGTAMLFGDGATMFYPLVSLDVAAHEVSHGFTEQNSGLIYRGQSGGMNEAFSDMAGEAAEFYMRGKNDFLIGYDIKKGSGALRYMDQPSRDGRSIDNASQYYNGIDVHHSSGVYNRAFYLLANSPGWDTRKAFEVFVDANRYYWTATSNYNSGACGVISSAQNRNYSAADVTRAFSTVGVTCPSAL
T5 sequence (O15379 whole entry): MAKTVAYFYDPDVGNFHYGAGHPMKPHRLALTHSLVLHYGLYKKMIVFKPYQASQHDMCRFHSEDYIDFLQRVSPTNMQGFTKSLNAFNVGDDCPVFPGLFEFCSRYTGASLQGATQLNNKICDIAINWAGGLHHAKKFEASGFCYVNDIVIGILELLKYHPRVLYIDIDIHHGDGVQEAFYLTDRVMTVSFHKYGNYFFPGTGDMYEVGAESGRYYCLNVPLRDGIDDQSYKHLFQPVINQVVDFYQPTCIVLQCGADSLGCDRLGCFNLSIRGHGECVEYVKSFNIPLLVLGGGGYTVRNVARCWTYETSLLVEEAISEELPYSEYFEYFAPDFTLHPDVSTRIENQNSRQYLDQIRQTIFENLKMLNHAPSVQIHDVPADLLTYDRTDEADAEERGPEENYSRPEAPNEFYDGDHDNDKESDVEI
T5 sequence (Q9Y618 395-489 partner limits assumed): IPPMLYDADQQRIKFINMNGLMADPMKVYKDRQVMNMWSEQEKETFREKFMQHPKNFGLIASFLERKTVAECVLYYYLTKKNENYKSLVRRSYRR
Method for HEK293: Culturing of HepG2, A549 and HEK293 cells. The human hepatocellular carcinoma cell line HepG2, the lung adenocarcinoma cell line A549 and Human Embryonic (HEK) 293 cells were cultured in Dulbecco's Modified Eagle Medium (DMEM), containing 10% Fetal Bovine Serum
(FBS) and 1% penicillin-streptomycin mixture. Cells were maintained according to standard cell
Cytotoxicity assay. An MTT-based assay was employed to evaluate the viability of HepG2,
HEK293 and A549 cells after challenge with selected LasB inhibitors and performed as described
Method for P. aeruginosa PA14: Bacterial growth inhibition assay. Assays regarding the determination of the MIC were
performed as described recently for P. aeruginosa PA14.58

Usually IC50 stands for the concentration needed to halve the response being measured. As a reminder, the chromatographic logD is lipophilicity estimated from chromatographic retention. Broadly, the microsomal CLint is a measure of how fast metabolising enzymes remove a compound, apart from limits set by blood flow. A higher microsomal CLint goes with rapid turnover. Broadly, the Papp is the rate of passage across a membrane or cell layer, normalised by area and donor concentration. A higher Papp goes with ready permeation. A word on the inhibition: it is the percentage by which the read-out fell short of the control. Turning to `Cc1ccc(NC(=O)C(CC(C)C)S(=O)(=O)O)cc1` (centres unmarked) [Compound 3i], the IC50 at LasB (LasB IC50, FRET-based assay) was 16000 nM. Besides, the chromatographic logD in [1] was -0.64. For the same molecule, the microsomal CLint at 1 μM in [2] and in [3] was below 5.8 µL/min/mg throughout. The half-life at 1 μM in the series “Plasma stability, mouse” is above 2.5 h. The Papp at 300 min in “Calu-3 permeability” is 0.47 ± 0.36 ×10⁻⁶ cm/s. For the same molecule, the inhibition at 100 µM was 12 ± 2% on MMP-1 (100 μM); below 10% at MMP-2 (100 μM); below 10% on MMP-3 (100 μM); below 10% against HDAC-3; below 10% against HDAC-8; below 10% on TACE (100 μM). At COX-1, this molecule displayed an inhibition at 100 µM below 10%.
For the molecule `Cc1ccc(NC(=O)C(CC(C)C)n2ccnn2)cc1` (centres unmarked) [Compound 3l], the chromatographic logD in series [1] was above 1.8. Besides, the microsomal CLint at 1 μM in series [2] was found to be 90 ± 9 µL/min/mg; in [3] it was 8.8 ± 1.2 µL/min/mg. Besides, in the series “Plasma stability, mouse”, the half-life at 1 μM was above 2.5 h. This molecule gave a Papp at 300 min in the series “Calu-3 permeability” of 17 ± 1 ×10⁻⁶ cm/s. Further, the inhibition at 100 µM on MMP-1 (100 μM), at MMP-2 (100 μM), at MMP-3 (100 μM), on HDAC-3, against HDAC-8 and on TACE (100 μM) was below 10% each time. Further, the inhibition at 100 µM on COX-1 was below 10%.
`Cc1ccc(NC(=O)C(CC(C)C)n2nccn2)cc1` (centres unmarked) [Compound 3m] had a chromatographic logD in series [1] above 1.8. For the same molecule, the figures for the microsomal CLint at 1 μM in series [2] and in series [3] were 356 ± 45 µL/min/mg and 18.5 ± 0.9 µL/min/mg, respectively. In addition, in the series “Plasma stability, mouse”, the half-life at 1 μM was above 2.5 h. In addition, in “Calu-3 permeability”, the Papp at 300 min was 18 ± 1 ×10⁻⁶ cm/s. The inhibition at 100 µM on MMP-1 (100 μM), on MMP-2 (100 μM), at MMP-3 (100 μM), on HDAC-3, against HDAC-8 and on TACE (100 μM) was below 10% each time. The inhibition at 100 µM against COX-1 was below 10%. For the same molecule, the “% growth inhibition HEK293” value in the series with HEK293 came out at 21 ± 1%.
Regarding `CC(C)CC(C(=O)Nc1ccc(F)cc1)P(=O)(O)O` (centres unmarked) [Compound 4h], the IC50 on LasB (FRET-based assay, read-out: LasB IC50) turned out to be 92.7 ± 21.6 nM. The “fold less active than chlorine and bromine compounds” value at LasB (vs 4i and 4j) is recorded as 2 fold. This molecule also registered a chromatographic logD in [1] of -0.79. Moreover, the intrinsic metabolic clearance (microsomal CLint) at 1 μM in [2] and in [3] was below 5.8 µL/min/mg in each case. For the same molecule, the half-life in the series “Plasma stability, mouse” (C57BL6, mouse, pooled plasma, species profiling, read-out: Plasma T1/2 Mouse (C57BL6)) is above 4 h; in “Plasma stability, rat” it was above 4 h; in [7], above 4 h. In addition, in “Plasma stability, mouse”, the half-life at 1 μM was above 2.5 h. Moreover, the microsomal CLint in [4], in [5] and in series [6] was below 11.6 µL/min/mg in each case.
With `CC(C)CC(C(=O)Nc1ccc(C#N)cc1)P(=O)(O)O` (centres unmarked) [Compound 4k], the IC50 is around 25 nM on LasB (LasB IC50, FRET-based assay) and 85 nM on LasB (LasB IC50 in presence of 1% pulmonary surfactant, 1% pulmonary surfactant). Further, the chromatographic logD in [1] was -0.87. In addition, the microsomal CLint at 1 μM in [2] and in series [3] was below 5.8 µL/min/mg each time. Also, the half-life at 1 μM in the series “Plasma stability, mouse” was above 2.5 h. For the same molecule, the inhibition at 100 µM at MMP-1 is 10 ± 5%; on MMP-2, below 10%; at MMP-3 it was 11 ± 5%; at TACE, below 10%; on COX-1, below 10%; in the series on P. aeruginosa PA14, below 10%. In addition, the “% growth inhibition HEK293” value in the series with HEK293 came out at 15 ± 23%.
Turning to `NC[C@H]1O[C@H](O[C@H]2[C@H](O)[C@@H](O[C@H]3O[C@H](CO)[C@@H](O)[C@H](N)[C@H]3O)[C@H](N)C[C@@H]2N)[C@H](N)C[C@@H]1O` [tobramycin, reference compound], the “survival of larvae infected with wt PA14” value in [8] (1 nmol 4b, 10.7 nmol tobramycin, or both, 17% in the wild type) turned out to be 23%. Besides, in series [8] (PBS with 4b, tobramycin or combination of both), the “survival in the PBS treated groups (not infected)” value came out at 100%.
